Assay results: patent US5939322A, “Human steroid receptor” (Merck & Co., Inc., priority 1996, dated 1999)
Entries after “also recorded” stand apart in the source; their conditions may differ.

Tests used:
[1] = tested on: GR/PPAR; test: Ligand dependent transcription assay, GR/PPAR chimeric receptor with MMTV-luciferase reporter in COS cells; format: cell-based, African green monkey
Description: (§1) Similar hybrid receptors GR/NER, GR/NUC and GR/PPAR, in identical expression plasmid backgrounds were prepared essentially as described for the construction of the GR/mPPAR and GR/NUC chimeric receptors in Schmidt et al., "Identification of a new member of the steroid hormone receptor superfamily that is activated by a peroxisome proliferator and fatty acids," Mol. Endocrinol., 6(10):1634-41, 1992, and in Boie et al., "Enantioselective activation of the peroxisome proliferator-activated receptor", J. Biol. Chem. 269(8):5530-4, 1993.
(§2) Briefly, the amino terminal portion of the mouse glucocorticoid receptor (mGR), that includes the DNA binding domain was fused to the putative ligand binding domains of the nuclear receptor NER, hNUC-I (Schmidt et al., 1992), mPPAR (Issenmann and Green, 1990) to form the respective chimeric receptors GR/NER, GR/NUC and GR/PPAR. The GR/NER chimeric receptor was constructed as described for the GR/NUC and GR/PPAR hybrid receptors (Schmidt et al., 1992; Boie et al). The cDNA sequences coding for amino acids Arg^155 and Glu^156 of the NER receptor were converted to the Xho I restriction site, that was later used for the ligation to the GR cDNA sequences that coded for the DNA binding domain. Thus, converting amino acid residues Arg^155 and Glu^156 of NER receptor to amino acid residues Ser^155 and His^156.
The ligand transcription assay mediated by GR/PPAR in COS cells was performed as described in Example 4. The cells were treated with TOFA and Cerulenin at 0.1, 1, 10 and 100 μM.

[2] = tested on: GR/NUC; test: Ligand dependent transcription assay, GR/NUC chimeric receptor with MMTV-luciferase reporter; format: cell-based, human; conditions: Table 1
Description: as §1, §2

[3] = tested on: GR/PPAR; test: Ligand dependent transcription assay, GR/PPAR chimeric receptor with MMTV-luciferase reporter in COS cells; format: cell-based, African green monkey; conditions: Table 1
[4] = tested on: GR/NER; test: Ligand dependent transcription assay, GR/NER chimeric receptor with MMTV-luciferase reporter in CV1 cells; format: cell-based, African green monkey; conditions: for Fold of Stimulation GR/NER, Control: no dopamine
Description: (§3) Transient transfection of COS and CV1 cells was performed as described (Schmidt 1992). Cells were plated (1.5×10^5 in 1 mL) into 12 well dishes in phenol red-free medium supplemented with activated charcoal treated fetal calf serum. The next day 0.12 mL of DNA 10 μg/ml (5 μg receptor DNA and 5 μg reporter plasmid), as a calcium phosphate precipitate, was added to the cells. Ligands were added to the cells 30 minutes after transfection. The next day (18 hours), the cells were washed and fresh ligands added. Twenty-four hours later, cell extracts were prepared and assayed for luciferase enzyme activity using the luciferase assay system (Promega Madison, Wis.). Each transfection was performed in triplicate and the luciferase activity of each sample measured in duplicate using the AutoClinilumat (Berthold Nashua, New Hampshire).

[5] = tested on: SCH 23390 Induced Catalepsy; test: SCH 23390 (dopamine D1 antagonist) induced catalepsy, bar method; format: in vivo; conditions: rats; carrier pretreatment, 24 h later SCH23390 0.5 mg/kg
Description: Rats were pretreated with 0.4 mg/kg TOFA or with carrier (S.C.). Twenty-four hours later, the rats were challenged with 0.5 mg/kg SCH23390, a Dopamine D1 antagonist, and the duration of catalepsy was monitored.
Catalepsy was determined by a modification of the Bar method (Undie and Friedman, 1988). A steel bar, 1.1 cm in diameter and 50 cm long, was suspended at a height of 10 cm above the working surface. Three sides of the bench around the bar were walled off with brown cardboard, and the linings on the bench surface were selected to be of the same color with the cardboard walls. The animal's hind limbs were freely placed on the bench, the tail laid out to the back, and the forelimbs placed over the bar. The length of time a rat stayed up on the bar was noted up to a preset cut-off point of 120 s. The time was counted off upon observing any of the following actions: (1) the animal came off, placing its two forepaws on the bench, (2) the animal climbed onto or over the bar with both hind limbs, (3) the animal initiated locomotion along or around the bar. Subsequently, time readings were translated into scores by awarding a score of 1 for each successfully completed 5 s on the bar. […]
Catalepsy scores were analyzed by computer in accordance with the statistical procedures outlined by Winer, B. J.: Statistical principles in experimental design. […]

[6] = tested on: MMTV-luciferase reporter gene; test: Luciferase expression in cells transfected only with the MMTV-luciferase reporter gene; format: cell-based
Description: as §3

[7] = tested on: promoter of SV40; test: Luciferase expression from reporter gene under control of the SV40 promoter; format: cell-based
[8] = tested on: PC12 cells; test: Neurite differentiation of PC12 cells; format: cell-based; conditions: TOFA alone, without NGF (data not shown)
Description: To further study the influence of TOFA on the nervous system, we tested the effect of TOFA on the differentiation of PC12 cells. PC12 cells were plated at a density of approximately 100-200/mm^2 on collagen coated plates or dishes in RPMI medium supplemented with 10% horse serum, 5% fetal calf serum, […] streptomycin, 50 U/mL penicillin in a water saturated atmosphere of 95% air and 5% CO2, at 37° C. overnight. […]
At different time points during the treatment, cells were photographed or fixed with 10% formalin. Morphology was examined after four days of treatment with TOFA or vehicle (DMSO). The number of cells bearing neurites and average length of neurites were determined with the aid of the Bioquant imaging system. […] However, as depicted in Table 6 below, NGF alone induced a 15% increase in the number of cells bearing neurites and these outgrowths reached a mean length of 20 μm . Treatment with NGF and TOFA increased the percentage of cells bearing neurites to 78%. Maximal neurite generation is observed at a concentration of 10 μM TOFA.
[…] At least eighty cells from eight wells were analyzed in each group. The results are shown as the mean±SEM. ^a p<0.01, versus vehicle by Dunnetts test.

[9] = tested on: Haloperidol Induced Catalepsy; test: Haloperidol (dopamine D2 antagonist) induced catalepsy, bar method; format: in vivo; conditions: rats; TOFA 0.4 mg/kg S.C. 24 h before Haloperidol 0.1 mg/kg

In the case of `C/C=C/C/C=C/CCC(=O)[C@H]1O[C@H]1C(N)=O` [Cerulenin], the “Fold of Stimulation GR/PPAR” value ([1]; 0.1 μM, Table 2, 1440 min) is reported as 1.03 ± 0.12 fold, the “Fold of Stimulation GR/PPAR” value ([1]; 1.0 μM, Table 2) is reported as 1.13 ± 0.05 fold and the “Fold of Stimulation GR/PPAR” value ([1]; 10.0 μM, Table 2, 1440 min) is reported as 0.58 ± 0.11 fold.
`CCCCCCCC/C=C\CCCCCCCC(=O)O` [Oleic Acid, oleic acid] was tested, and the “Fold of stimulation GR/NUC” value ([2]; 150 μM) was 3.42 ± 0.28 fold, the “Fold of Stimulation GR/PPAR” value ([3]; 50 μM) was 2.87 ± 0.2 fold and the “Fold of Stimulation GR/PPAR” value ([3]; 300 μM) was 14.69 ± 0.06 fold.
In the case of `CN1CCc2cc(Cl)c(O)cc2C(c2ccccc2)C1` (centres unmarked) [SCH-23390, 8-chloro-2,3,4,5-tetrahydro-3-methyl-5-phenyl-1H-3-benzazepin-7-ol hemimaleate], the “Fold of Stimulation GR/NER, Dopamine (50 μM)” value (“Fold … (50 μM)” below) ([4]; SCH-23390 0.1 μM with dopamine 50 μM) is reported as 0.59 ± 0.06 fold, the “Fold of Stimulation GR/NER, Control” value ([4]; SCH-23390 0.1 μM) is reported as 1.32 ± 0.15 fold and the “Fold … (50 μM)” value ([4]; SCH-23390 1.0 μM with dopamine 50 μM) is reported as 0.55 ± 0.09 fold. For the same compound, the “Fold of Stimulation GR/NER, Control” value ([4]; SCH-23390 1.0 μM) was 1.22 ± 0.11 fold, the “Fold … (50 μM)” value ([4]; SCH-23390 10.0 μM with dopamine 50 μM) was 0.83 ± 0.12 fold and the “Fold of Stimulation GR/NER, Control” value ([4]; SCH-23390 10.0 μM) was 1.64 ± 0.38 fold. For the same compound, the “Fold … (50 μM)” value ([4]; SCH-23390 100 μM with dopamine 50 μM) was 2.61 ± 0.86 fold, the “Fold of Stimulation GR/NER, Control” value ([4]; SCH-23390 100 μM) was 2.38 ± 0.19 fold and the “Catalepsy Duration” value [5] was 3.1 ± 1.3 s.
For `CCCCCCCCCCCCCCOc1ccc(C(=O)O)o1` [TOFA, 5-(tetradecyloxy)-2-furan carboxylic acid], the “Fold of stimulation GR/NUC” value ([2]; 2 μM) was 1.95 ± 0.14 fold, the “Fold of stimulation GR/NUC” value ([2]; 10 μM) was 2.85 ± 0.20 fold and the “Fold of stimulation GR/NUC” value ([2]; 50 μM) was 3.19 ± 0.20 fold. For the same compound, the “Fold of Stimulation GR/PPAR” value ([1]; 0.1 μM, Table 2, 1440 min) was 1.04 ± 0.14 fold, the “Fold of Stimulation GR/PPAR” value ([1]; 1.0 μM, Table 2) was 2.38 ± 0.16 fold and the “Fold of Stimulation GR/PPAR” value ([1]; 10.0 μM, Table 2, 1440 min) was 4.43 ± 0.23 fold. For the same compound, the “Fold of Stimulation GR/PPAR” value ([1]; 100 μM, Table 2, 1440 min) was 4.10 ± 0.52 fold, the “stimulation of luciferase expression, MMTV-luciferase reporter gene only” value [6] was “did not stimulate” and the “stimulation of luciferase expression, reporter under control of the promoter of SV40” value [7] was “did not stimulate”. For the same compound, the neurite outgrowth [8] was “did not induce neurite outgrowth”, the “effect of TOFA pretreatment on Haloperidol-induced catalepsy” value [9] was “did not significantly affect; also recorded: unaffected” and the “Fold of Stimulation GR/PPAR” value ([3]; 2 μM) was 2.89 ± 0.13 fold. The “Fold of Stimulation GR/PPAR” value ([3]; 10 μM) was 4.08 ± 0.10 fold and the “Fold of Stimulation GR/PPAR” value ([3]; 20 μM) was 5.75 ± 0.14 fold.
